What was measured:
[1] = test system: dermatophytic fungal strains; assay: Disk assay of essential oil components; assay type: cell-based; details: disk loaded with 500, 1000, 1500 or 3000 ppm
Procedure: Various embodiments of the penetrating carrier system of the present invention were tested for their antimicrobial/biostatic potential by a laboratory test method, which provides a qualitative and semi-qualitative procedure for the evaluation of antimicrobial activity by disk assay. All dermatophytic fungal strains (Table 1) were grown on modified Sabouraud agar (pH adjusted to 7). The cultures were grown for one week previous to the experiments at 30° C., while stock culture plates were maintained at 4° C. until needed. […] The sterile disk was then loaded with 500 ppm, 1000 ppm, 1500 ppm or 3000 ppm of the test compound. A control was provided by placing 2 ul of alcohol on plates that were inoculated for this purpose. The plates were incubated for seven (7) days at 30° C. The zone of inhibition was measured around each loaded disk in four directions. The average measurement was then determined and recorded in millimeters as the zone of inhibition.

[2] = test system: Trichophyton mentagrophytes; assay: Minimum inhibitory concentration, poison media procedure; assay type: cell-based
Procedure: (§1) Each individual essential oil component was mixed with molten modified Sabouraud agar in 100 ppm, 500 ppm, or 1000 ppm (v/v). The poison media agar was then poured and allowed to cool for at least 48 hours. Separate cultures of four dermatophytes (i.e.: E. floccosum, M. gypseum, T. mentagrophytes, and T. rubrum) were grown on modified Sabouraud agar for four days until a confluent mat of mycelium developed. The four cultures were then cut into 8 mm plugs and placed upside down with the fungi culture on the surface of the poison media. This procedure was run in triplicate. In addition, several mixtures containing various combinations of the essential oil components were tested using the same procedure. The plates were incubated for one week at 30° C. Plates were then examined for growth. Plates with no visible growth after one week on the poison media were listed as fungistatic
(§2) Plugs showing no growth on the poison media were then transferred to modified SDA, allowed to incubate for an additional week at 30° C., and then reexamined for growth. All components were run in triplicate. Plates with no growth after the additional week were listed as fungicidal.

Microsporum gypseum = assay: as above; assay type: cell-based
Procedure: as §1, §2

Epidermophyton floccosum = assay: as above; assay type: cell-based
Procedure: as §1, §2

Trichopyton rubrum = assay: as above; assay type: cell-based, Trichophyton rubrum
Procedure: as §1, §2

[3] = test system: four dermatophytes (E. floccosum, M. gypseum, T. mentagrophytes, and T. rubrum); assay: Poison media procedure; assay type: cell-based; details: 100 ppm
Procedure: as §1, §2

[4] = 100 ppm (v/v) in modified Sabouraud agar, one week at 30° C.
[5] = 500 ppm (v/v) in modified Sabouraud agar, one week at 30° C.
[6] = 1000 ppm (v/v) in modified Sabouraud agar, one week at 30° C.

| Compound | Rank among essential oil components in the disk assay [1] | Growth on poison media (fungistatic / fungicidal / growth) [2, 4] | Growth on poison media (fungistatic / fungicidal / growth) [2, 5] | Growth on poison media (fungistatic / fungicidal / growth) [2, 6] | Growth on poison media (fungistatic / fungicidal / growth) (Microsporum gypseum; [4]) | Growth on poison media (fungistatic / fungicidal / growth) (Microsporum gypseum; [5]) | Growth on poison media (fungistatic / fungicidal / growth) (Microsporum gypseum; [6]) | Growth on poison media (fungistatic / fungicidal / growth) (Epidermophyton floccosum; [4]) | Growth on poison media (fungistatic / fungicidal / growth) (Epidermophyton floccosum; [5]) | Growth on poison media (fungistatic / fungicidal / growth) (Epidermophyton floccosum; [6]) | Growth on poison media (fungistatic / fungicidal / growth) (Trichopyton rubrum; [4]) | Growth on poison media (fungistatic / fungicidal / growth) (Trichopyton rubrum; [5]) | Growth on poison media (fungistatic / fungicidal / growth) (Trichopyton rubrum; [6]) | Inhibition of growth [3] | other results |
| --- | --- | --- | --- | --- | --- | --- | --- | --- | --- | --- | --- | --- | --- | --- | --- |
| Cc1ccc(C(C)C)cc1O [Carvacrol] | most inhibitory | [empty] | fungicidal | fungicidal | fungistatic | fungicidal | fungicidal | [empty] | fungicidal | fungicidal | fungistatic | fungicidal | fungicidal | inhibit the growth of several organisms | – |
| O=CC=Cc1ccccc1 [Cinnamaldehyde] | most inhibitory | [empty] | [empty] | fungicidal | [empty] | fungicidal | fungicidal | [empty] | fungicidal | fungicidal | [empty] | fungicidal | fungicidal | – | – |
| CC(C)=CCCC(C)=CC=O [Citral] | most inhibitory | [empty] | [empty] | fungistatic | [empty] | [empty] | fungicidal | [empty] | [empty] | [empty] | [empty] | [empty] | fungicidal | – | – |
| C=CCc1ccc(O)c(OC)c1 [Eugenol] | most inhibitory | [empty] | fungistatic | fungistatic | [empty] | fungicidal | fungicidal | [empty] | fungicidal | fungicidal | [empty] | fungistatic | fungicidal | – | – |
| C=CCc1ccc(OC)c(OC)c1 [Methyl Eugenol] | – | – | – | – | – | – | – | – | – | – | – | – | – | – | Growth on poison media (fungistatic / fungicidal / growth) ([2]; 168 h, 100 ppm): [empty]; Growth on poison media (fungistatic / fungicidal / growth) ([2]; 168 h, 500 ppm): fungistatic; Growth on poison media (fungistatic / fungicidal / growth) ([2]; 168 h, 1000 ppm): fungistatic; Growth on poison media (fungistatic / fungicidal / growth) (Microsporum gypseum; 168 h, 100 ppm): [empty]; Growth on poison media (fungistatic / fungicidal / growth) (Microsporum gypseum; 168 h, 500 ppm): fungistatic; Growth on poison media (fungistatic / fungicidal / growth) (Microsporum gypseum; 168 h, 1000 ppm): fungistatic; Growth on poison media (fungistatic / fungicidal / growth) (Epidermophyton floccosum; 168 h, 100 ppm): [empty]; Growth on poison media (fungistatic / fungicidal / growth) (Epidermophyton floccosum; 168 h, 500 ppm): fungistatic; Growth on poison media (fungistatic / fungicidal / growth) (Epidermophyton floccosum; 168 h, 1000 ppm): fungistatic; Growth on poison media (fungistatic / fungicidal / growth) (Trichopyton rubrum; 168 h, 100 ppm): [empty]; Growth on poison media (fungistatic / fungicidal / growth) (Trichopyton rubrum; 168 h, 500 ppm): fungistatic; Growth on poison media (fungistatic / fungicidal / growth) (Trichopyton rubrum; 168 h, 1000 ppm): fungistatic |
| Cc1ccc(C(C)C)c(O)c1 [Thymol] | most inhibitory | fungistatic | fungicidal | fungicidal | fungistatic | fungicidal | fungicidal | fungistatic | fungicidal | fungicidal | fungicidal | fungicidal | fungicidal | inhibit the growth of several organisms | – |

Reference: US20090258098A1, “PENETRATING CARRIER, ANTIFUNGAL COMPOSITION USING THE SAME AND METHOD FOR TREATMENT OF DERMATOPHYTE INFECTIONS” (priority 2008, published 2009)
